# Assay results taken from US20260137642A1 (CANCER PREVENTION PHARMACEUTICALS, INC., priority 2021, published 2026).
# Columns and labels:
# [1] = system: RINm5F insulinoma cells; conditions: cited from earlier work
# [2] = system: β cell function; conditions: mouse models including the NOD mouse; cited from earlier work
# [3] = Phase I/II trial in new onset T1D: adverse events judged possibly or probably related to drug; format: in vivo, human; conditions: daily oral; for Adverse events possibly or probably related to drug: Hematologic, Grade 1 Neutropenia: neutrophil count < lower limit of normal but above 1500/mm^3
# From the text: The primary efficacy measure was changes in pro-insulin to C-peptide ratios as a marker of β cell ER stress. The secondary objectives of the study were to elucidate the relationship between primary dose and markers of endoplasmic reticulum (ER) stress, polyamine concentrations, glycemic, and immunologic outcomes in persons with new onset T1D, and to characterize the dietary polyamine intake and urinary polyamine excretion of persons with recent-onset T1D. Secondary efficacy measures included other biomarkers of β cell stress, stimulated C-peptide values, and changes in T-cell subsets. This study was double-blind, placebo-controlled, 2:1 random assigned, phase I/II clinic trial for individuals with type 1 diabetes. The blinded dose-ranging study enrolled persons with new onset T1D with documented continued residual C-peptide production. […] After a 3 month wash-out period, the durability of effect was assessed. […] Males and females 12-40 years of age with a clinical diagnosis of T1D within 2-8 months of the time of visit 2; 2. […] Positive for any one of the following diabetes-related autoantibodies (mIAA, GADA, IA-2A, or ZnT8A); 4. Treatment naïve of any immunomodulatory agent; 5. […] Presence of any psychiatric disorder that will affect ability to participate in study, including psychiatric impairment or current use of anti-psychotic medication; 3. […] Chronic illness known to affect glucose metabolism (e.g. Cushing syndrome, polycystic ovarian disorder, cystic fibrosis) or taking medications that affect glucose metabolism (e.g. steroids, metformin); 5. Inability to swallow pills; 6. Hematologic abnormalities at screening (anemia, leukopenia (particularly neutropenia), or thrombocytopenia); 7. […] Female participants of child-bearing age must not be pregnant and agree to use an effective form of birth control or be abstinent during the study period; 9. BMI >95% for age and sex. […] The enrollment cohorts were as follows: […] [table] […] Possible drug-related expected AEs included mild-moderate nausea/vomiting/abdominal pain and diarrhea, moderate headache, upper respiratory infections, a pump site infection, and mild anemia. […] Adverse events judges by masked study investigators as possibly or probably related to drug are showing in Table 3.
structure (smiles),measurement,setting,value
"NCCCC(N)(C(=O)O)C(F)F (centres unmarked) [eflornithine, 2,5-diamino-2-(difluoromethyl) pentanoic acid]",Insulin content and secretion,[1],improves insulin content and secretion
same,β cell function and diabetes onset,[2],preserves β cell function and delays diabetes onset
same,Adverse events possibly or probably related to drug: Abdominal Pain,[3]; 125 mg/m^2 (n = 6),1
same,Adverse events possibly or probably related to drug: Congestion,[3]; 125 mg/m^2 (n = 6),0
same,Adverse events possibly or probably related to drug: Cough,[3]; 125 mg/m^2 (n = 6),0
same,Adverse events possibly or probably related to drug: Diarrhea,[3]; 125 mg/m^2 (n = 6),0
same,Adverse events possibly or probably related to drug: Dizziness,[3]; 125 mg/m^2 (n = 6),0
same,Adverse events possibly or probably related to drug: Gastrointestinal (Total),[3]; 125 mg/m^2 (n = 6),1
same,"Adverse events possibly or probably related to drug: Hematologic, Anemia",[3]; 125 mg/m^2 (n = 6),0
same,Adverse events possibly or probably related to drug: Hot flashes associated with viral illness,[3]; 125 mg/m^2 (n = 6),0
same,Adverse events possibly or probably related to drug: Nausea,[3]; 125 mg/m^2 (n = 6),0
same,Adverse events possibly or probably related to drug: Nausea with IV placement,[3]; 125 mg/m^2 (n = 6),0
same,"Adverse events possibly or probably related to drug: Neurologic, Headache",[3]; 125 mg/m^2 (n = 6),1
same,Adverse events possibly or probably related to drug: Other Viral Illness,[3]; 125 mg/m^2 (n = 6),0
same,"Adverse events possibly or probably related to drug: Other infectious/immune, Pump site infection",[3]; 125 mg/m^2 (n = 6),0
same,"Adverse events possibly or probably related to drug: Other, Hypoglycemia",[3]; 125 mg/m^2 (n = 6),0
same,"Adverse events possibly or probably related to drug: Other, Urticaria/anaphylaxis",[3]; 125 mg/m^2 (n = 6),0
same,Adverse events possibly or probably related to drug: URI,[3]; 125 mg/m^2 (n = 6),0
same,Adverse events possibly or probably related to drug: Vomiting,[3]; 125 mg/m^2 (n = 6),1
same,"Adverse events possibly or probably related to drug: Hematologic, Grade 1 Neutropenia",[3]; 125 mg/m^2 (n = 6),1
same,Adverse events possibly or probably related to drug: Abdominal Pain,[3]; 250 mg/m^2 (n = 6),0
same,Adverse events possibly or probably related to drug: Congestion,[3]; 250 mg/m^2 (n = 6),0
same,Adverse events possibly or probably related to drug: Cough,[3]; 250 mg/m^2 (n = 6),0
same,Adverse events possibly or probably related to drug: Diarrhea,[3]; 250 mg/m^2 (n = 6),1
same,Adverse events possibly or probably related to drug: Dizziness,[3]; 250 mg/m^2 (n = 6),0
same,Adverse events possibly or probably related to drug: Gastrointestinal (Total),[3]; 250 mg/m^2 (n = 6),1
same,"Adverse events possibly or probably related to drug: Hematologic, Anemia",[3]; 250 mg/m^2 (n = 6),0
same,Adverse events possibly or probably related to drug: Hot flashes associated with viral illness,[3]; 250 mg/m^2 (n = 6),0
same,Adverse events possibly or probably related to drug: Nausea,[3]; 250 mg/m^2 (n = 6),0
same,Adverse events possibly or probably related to drug: Nausea with IV placement,[3]; 250 mg/m^2 (n = 6),0
same,"Adverse events possibly or probably related to drug: Neurologic, Headache",[3]; 250 mg/m^2 (n = 6),0
same,Adverse events possibly or probably related to drug: Other Viral Illness,[3]; 250 mg/m^2 (n = 6),0
same,"Adverse events possibly or probably related to drug: Other infectious/immune, Pump site infection",[3]; 250 mg/m^2 (n = 6),0
same,"Adverse events possibly or probably related to drug: Other, Hypoglycemia",[3]; 250 mg/m^2 (n = 6),0
same,"Adverse events possibly or probably related to drug: Other, Urticaria/anaphylaxis",[3]; 250 mg/m^2 (n = 6),0
same,Adverse events possibly or probably related to drug: URI,[3]; 250 mg/m^2 (n = 6),0
same,Adverse events possibly or probably related to drug: Vomiting,[3]; 250 mg/m^2 (n = 6),0
same,"Adverse events possibly or probably related to drug: Hematologic, Grade 1 Neutropenia",[3]; 250 mg/m^2 (n = 6),0
same,Adverse events possibly or probably related to drug: Abdominal Pain,[3]; 500 mg/m^2 (n = 6),0
same,Adverse events possibly or probably related to drug: Congestion,[3]; 500 mg/m^2 (n = 6),0
same,Adverse events possibly or probably related to drug: Cough,[3]; 500 mg/m^2 (n = 6),0
same,Adverse events possibly or probably related to drug: Diarrhea,[3]; 500 mg/m^2 (n = 6),0
same,Adverse events possibly or probably related to drug: Dizziness,[3]; 500 mg/m^2 (n = 6),0
same,Adverse events possibly or probably related to drug: Gastrointestinal (Total),[3]; 500 mg/m^2 (n = 6),0
same,"Adverse events possibly or probably related to drug: Hematologic, Anemia",[3]; 500 mg/m^2 (n = 6),0
same,Adverse events possibly or probably related to drug: Hot flashes associated with viral illness,[3]; 500 mg/m^2 (n = 6),0
same,Adverse events possibly or probably related to drug: Nausea,[3]; 500 mg/m^2 (n = 6),0
same,Adverse events possibly or probably related to drug: Nausea with IV placement,[3]; 500 mg/m^2 (n = 6),0
same,"Adverse events possibly or probably related to drug: Neurologic, Headache",[3]; 500 mg/m^2 (n = 6),0
same,Adverse events possibly or probably related to drug: Other Viral Illness,[3]; 500 mg/m^2 (n = 6),0
same,"Adverse events possibly or probably related to drug: Other infectious/immune, Pump site infection",[3]; 500 mg/m^2 (n = 6),0
same,"Adverse events possibly or probably related to drug: Other, Hypoglycemia",[3]; 500 mg/m^2 (n = 6),1
same,"Adverse events possibly or probably related to drug: Other, Urticaria/anaphylaxis",[3]; 500 mg/m^2 (n = 6),0
